The text below walks through data of paper PMC3869244, “Cyclopamine analogs bearing exocyclic methylenes are highly potent and acid-stable inhibitors of hedgehog signaling” (Beilstein Journal of Organic Chemistry, 2013).

Data set [1] has as its system Gli1-dependent luciferase expression in Shh-LIGHTII cells. Conditions: cited from earlier work.
The conditions of data set [2]: cited from earlier work.
Data set [3] relates to Gli1-dependent luciferase expression in Shh-LIGHTII cells. In words: Gli1-reporter gene assay (luciferase) in Shh-LIGHTII cells. The data set is classed as cell-based, mouse. Conditions: for IC50: Mus musculus, Shh Light II, 48 h, read-out: Potency in Gli-assay (IC50); for Activity in Gli1-dependent luciferase assay (in words): concentration range 0.01 μM to 10 μM. Here is the method: Next, we examined all synthesized compounds for their ability to inhibit the Gli1-dependent luciferase expression in Shh-LIGHTII cells, a clonal mouse fibroblast cell line which stably incorporates a Gli-dependent firefly luciferase reporter and a constitutive Renilla luciferase reporter. The compounds were tested in a concentration range from 0.01 μM to 10 μM.
Data were obtained from three independent experiments and represent the mean ± standard deviation.
The interference of the exo-cyclopamine derivatives with the hedgehog signaling pathway was tested in an established reporter gene assay based on the inhibition of the target gene Gli1. Shh-LIGHTII cells (ATCC CRL-2795, LGC, Wesel, Germany) represent a clonal mouse fibroblast cell line (NIH 3T3), which stably incorporates a Gli-dependent firefly luciferase reporter and a constitutive Renilla luciferase reporter. They were grown in […] cell culture flasks at 37 °C in a humid atmosphere with 5% CO2. Cell growth medium […] (Dulbecco's Modified Eagle's Medium, high glucose, sodium pyruvate, w/o glutamine), ZeocinTM Selection Reagent and Geneticin® Selection Antibiotic (G418 sulfate) were obtained from Invitrogen. Additive L-glutamin and trypsin were obtained from PAA. VerseneTM chelating agent was obtained from Gibco, bovine fetal serum (FBS) from Sigma. The cell freeze medium contained 5% DMSO in complete growth medium. The cell number was counted using a Neubauer-Zählkammer (Hemocytometer).
DIMETHOXYETHANEM (high glucose, sodium pyruvate, w/o glutamine) supplemented with 0.5% FBS, 4 mM L-glutamin and 50 mM HEPES buffer (4-(2-hydroxyethyl)-1-piperazine ethanesulfonic acid) (pH 7.4) was used as incubation medium. The measurement of reporter gene and constitutive Renilla luminescence was performed with the Dual Luciferase® reporter system according to the manufacturer’s instructions (Promega, Mannheim, Germany) using a GENios reader (TECAN, Crailsheim, Germany).
Luciferase reporter assay.
For performing the assay, Shh-LIGHTII cells were grown to reach 80% confluence, washed twice with Versene, detached with 2 mL trypsin for not longer than 2 min and resuspended in 8 mL of growth medium. After centrifugation for 3 min, the supernatant was removed and the cell pellet dissolved in approximately 10 mL of growth medium. Finally, 20,000 to 100,000 cells per well were cultured in a 24-well plate for 48 h. For exposure to the derivatives the growth medium was removed and the cells were exposed to the compound in 500 μL/well incubation medium for 48 h. Stock solutions were prepared in EtOH and introduced in different concentrations into the incubation medium to reach a final solvent concentration of 0.05%. Due to the assay principle, Shh-LIGHTII cells had to be co-exposed to 100 nM of SAG (Smoothened agonist) for determining the inhibitory activity of the compounds. A SAG stock solution was prepared in EtOH and introduced into the medium. The final EtOH concentration – introduced by SAG and the test compound – was 0.1%. As a positive control a 100 nM SAG solution in incubation medium (0.1% EtOH) was used, negative controls were treated with EtOH […]
Performing the luciferase measurement.
After 48 h of incubation cells were washed with 500 μL PBS (phosphate buffered saline, w Mg/Ca, Invitrogen) and afterwards incubated for 15 min with 100 μL 1 x passive lysis buffer on a shaker. The lysed cells together with lysis solution were transferred into 1.5 mL reaction tubes, centrifuged for 1 min at 4 °C and kept on ice until further use. At first, the blank of luminescence of a 96-well plate (flat bottom, white, Greiner bio-one) was recorded. Then, 100 μL luciferase assay reagent and 10 μL cell supernatant were mixed per well and the luminescence of firefly luciferase was recorded. Addition of 100 μL Stop&Glo® reagent permitted the recording
A general note: In a reporter assay the amount or activity of a reporter protein is the signal.

Data set [4] is described as follows: Stability towards acidic conditions. The data set is classed as physicochemical. Conditions: pH approximately 1 (MeOH, 1 M HCl), 1H NMR compared with pure compound. Here is the method:
Finally, we studied the stability of all newly synthesized compounds towards acidic conditions. Therefore, they were exposed to a pH of approximately 1 (MeOH, 1 M HCl) for 24 h. After evaporation of all volatiles, ^1H NMR spectra were acquired and compared to the initially obtained spectra of the pure compounds. […] This experiment emphasizes the importance of the C-21 methyl group for the stability of exo-cyclopamine derivatives. All synthesized compounds, the number of steps required, and the respective overall yield starting from 3 or 14, as well as their biological activity and stability under acidic conditions are summarized in Table 1.

A further data set has as its system Shh-LIGHTII cells. In words: Cytotoxicity observed in the reporter gene assay. Conditions: in the concentration range tested (0.01 μM to 10 μM). The data set is classed as cell-based, mouse. Here is the method:
Given the negative test results of compounds 8 and 9 it becomes evident that the F-ring is necessary for bioactivity. The piperidine moiety provides a rather rigidly placed nitrogen atom. Nevertheless, a pyrrolidine as in compound 23 still provides the correct orientation of the nitrogen atom.
The interference of the exo-cyclopamine derivatives with the hedgehog signaling pathway was tested in an established reporter gene assay based on the inhibition of the target gene Gli1. […] The cell number was counted using a Neubauer-Zählkammer (Hemocytometer).
DIMETHOXYETHANEM (high glucose, sodium pyruvate, w/o glutamine) supplemented with 0.5% FBS, 4 mM L-glutamin and 50 mM HEPES buffer (4-(2-hydroxyethyl)-1-piperazine ethanesulfonic acid) (pH 7.4) was used as incubation medium. The measurement of reporter gene and constitutive Renilla luminescence was performed with the Dual Luciferase® reporter system according to the manufacturer’s instructions (Promega, Mannheim, Germany) using a GENios reader (TECAN, Crailsheim, Germany). […]
After 48 h of incubation cells were washed with 500 μL PBS (phosphate buffered saline, w Mg/Ca, Invitrogen) and afterwards incubated for 15 min with 100 μL 1 x passive lysis buffer on a shaker. […] At first, the blank of luminescence of a 96-well plate (flat bottom, white, Greiner bio-one) was recorded. […]

Where [5] appears, read: read-out: Potency in Gli-assay, previously synthesized and biologically evaluated.
Where [6] appears, read: Shh-LIGHTII cells, co-exposed to 100 nM SAG, tested 0.01 μM to 10 μM, mean ± standard deviation of three independent experiments.

Entries after “also recorded” stand apart in the source; their conditions may differ. Like-named read-outs stand apart in the source and are kept apart here. Bounds are passed on as bounds.

In the case of `CC1=C2C[C@H]3[C@@H](CC=C4C[C@@H](O)CC[C@@]43C)[C@@H]2CC[C@]12O[C@@H]1C[C@H](C)CN[C@H]1[C@H]2C` [Compound 1, cyclopamine], the IC50 is about 5 µM in data set [1] (read-out: Potency (IC50) as inhibitor of hedgehog signaling, introductory statement, no assay details printed) and 5 µM in data set [1] (setting [5]). Besides, the “pH at which decomposition occurs” value in data set [2] (low metabolic stability (decomposition)) is listed as under 3. Further, the “Stability towards acid (pH ~1, 24 h)” value in data set [2] (previously synthesized and evaluated compounds) was “decomp”.

Take `C=C1[C@@H]2C[C@H]3[C@@H](CC=C4C[C@@H](O)CC[C@@]43C)[C@@H]2CC[C@]12O[C@@H]1C[C@H](C)CN[C@H]1[C@H]2C` [Compound 2, exo-cyclopamine]: in data set [1] (setting [5]), the IC50 is 0.5 µM.

As to `C=C1C2CC3C(CC=C4CC(O)CCC43C)C2CCC12OC1CC(C)CNC1C2C` (stereo not drawn) [Compound 5, 25-epi-exo-cyclopamine], in data set [3] (setting [6]), the IC50 was determined as 3.29 ± 0.31 µM. The “Stability towards acid (pH ~1, 24 h)” value in data set [4] was “remained unchanged; also recorded: stable”.

With `C=C1CNC2C(C1)OC1(CCC3C(CC4C3CC=C3CC(O)CCC34C)C1=C)C2C` (stereo not drawn) [Compound 6, bis-exo-cyclopamine], the IC50 in data set [3] (setting [6]) amounted to 0.2 ± 0.01 µM. In addition, the “Potency relative to parent compound (cyclopamine)” value in data set [3] (surpasses potency of parent compound) was 25 fold.

For the compound `C=C1[C@@H]2C[C@H]3[C@@H](CC=C4C[C@@H](O)CC[C@@]43C)[C@@H]2CC[C@]12OC[C@@H](NCC)[C@H]2C` [Compound 8], in data set [3] (setting [6]), the IC50 is over 10 µM. In data set [3], the “Activity in Gli1-dependent luciferase assay (in words)” value (“Activity” below) was “no activity”. Moreover, in data set [4], the “Stability towards acid (pH ~1, 24 h)” value is listed as “remained unchanged; also recorded: stable”. In addition, the Cytotoxicity result in the data set with Shh-LIGHTII cells is listed as “induced cytotoxicity”.

As for `C=C1[C@@H]2C[C@H]3[C@@H](CC=C4C[C@@H](O)CC[C@@]43C)[C@@H]2CC[C@]12OC[C@@H](N)[C@H]2C` [Compound 9], the IC50 in data set [3] (setting [6]) is over 10 µM. Moreover, in data set [3], the “Activity” value is reported as “no activity”. Further, in data set [4], the “Stability towards acid (pH ~1, 24 h)” value is reported as “remained unchanged; also recorded: stable”. In the data set with Shh-LIGHTII cells, the Cytotoxicity entry is recorded as “induced cytotoxicity”.

In the case of `C=C1CN[C@H]2C[C@@]3(CC[C@H]4[C@@H]5CC=C6C[C@@H](O)CC[C@]6(C)[C@H]5C[C@H]4C3=C)O[C@@H]2C1` [Compound 19, 20-demethyl-bis-exo-cyclopamine], in data set [3], the IC50 was over 10 µM and the “Activity” value was “no activity; also recorded: completely inactive”. The “Stability towards acid (pH ~1, 24 h)” value in data set [4] is reported as “showed decomposition; also recorded: decomp”.

As for `C=C1C2CC3C(CC=C4CC(O)CCC43C)C2CCC12CC1NCCC1O2` (stereo not drawn) [Compound 23, F-nor-20,25-bis-demethyl-exo-cyclopamine], the IC50 in data set [3] (setting [6]) is 6.4 ± 0.9 µM. Moreover, in data set [4], the “Stability towards acid (pH ~1, 24 h)” value was “showed decomposition; also recorded: decomp”.
